Test results: patent US11845760B2, “PRMT5 inhibitors” (AMGEN INC., priority 2020, dated 2023)

What was measured:
[1] = test system: HCT116 WT cells; experiment: HCT116 WT cell line proliferation (CellTiter-Glo cell viability, 6 days); type: cell-based; settings: Homo sapiens, HCT-116, 144 h, HCT116 WT (parent) cells, 6 days of treatment, CellTiter-Glo cell viability; read-out: HCT-116 WT IC50
Method in brief: (§1)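 Isogenic HCT116 pair (parent and MTAP double-allele knockout) in RPMI 1640 + 10% FBS, exposed 6 days to compound: 8–9-point 1:3 dilutions from 1 or 10 μM top, or 22-point 1:2 dilutions from 10 or 50 μM top. CellTiter-Glo luminescence; IC50 from sigmoidal fit (Hill −1) or 4-parameter logistic.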

[2] = test system: HCT116 MTAP null cells; experiment: HCT116 MTAP null cell line proliferation (CellTiter-Glo cell viability, 6 days); type: cell-based; settings: HCT116-MTAP null, 144 h, HCT116 MTAP null cells, 6 days of treatment, CellTiter-Glo cell viability; read-out: HCT-116 MTAP null IC50
Method in brief: as §1

IC50 [1] [nM]	IC50 [2] [nM]	SMILES
36600	1100	Cn1ncc2c3cc(C(=O)N4CCOCC4c4ccc(C(F)(F)F)cn4)ccc3nc(N)c21 (racemic) [Example 499, (4-amino-3-methyl-3H-pyrazolo[3,4-c]quinolin-8-yl)((3R)-3-(5-(trifluoromethyl)-2-pyridinyl)-4-morpholinyl)methanone and (4-amino-3-methyl-3H-pyrazolo[3,4-c]quinolin-8-yl)((3S)-3-(5-(trifluoromethyl)-2-pyridinyl)-4-morpholinyl)methanone]
> 10000	> 1000	Nc1nc2ccc(C(=O)N3CCOCC3c3ccc(Br)nn3)cc2c2c1COC2 (racemic) [Example 500, (4-amino-1,3-dihydrofuro[3,4-c]quinolim-8-yl)-[rac-(3S)-3-(6-bromopyridazin-3-yl)morpholin-4-yl]methanone]
21500	330	Nc1nc2cnc(C(=O)N3CCOCC3c3c(F)cc(Br)cc3F)cc2c2c1COC2 (racemic) [Example 505, (4-amino-1,3-dihydrofuro[3,4-c][1,7]naphthyridin-8-yl)((3R)-3-(4-bromo-2,6-difluorophenyl)-4-morpholinyl)methanone and (4-amino-1,3-dihydrofuro[3,4-c][1,7]naphthyridin-8-yl)((3S)-3-(4-bromo-2,6-difluorophenyl)-4-morpholinyl)methanone]
6610	603	Nc1nc2ccc(C(=O)N3CCOCC3c3ccc(CC(F)(F)F)cc3)cc2c2c1COC2 (racemic) [Example 508, (4-amino-1,3-dihydrofuro[3,4-c]quinolin-8-yl)((3R)-3-(4-(2,2,2-trifluoroethyl)phenyl)-4-morpholinyl)methanone and (4-amino-1,3-dihydrofuro[3,4-c]quinolin-8-yl)((3S)-3-(4-(2,2,2-trifluoroethyl)phenyl)-4-morpholinyl)methanone]
10600	325	Nc1nc2cnc(C(=O)N3CCOCC3c3ccc(CC(F)(F)F)cc3)cc2c2c1COC2 (racemic) [Example 509, (4-amino-1,3-dihydrofuro[3,4-c][1,7]naphthyridin-8-yl)((3R)-3-(4-(2,2,2-trifluoroethyl)phenyl)-4-morpholinyl)methanone and (4-amino-1,3-dihydrofuro[3,4-c][1,7]naphthyridin-8-yl)((3S)-3-(4-(2,2,2-trifluoroethyl)phenyl)-4-morpholinyl)methanone]
> 10000	> 1000	Cc1ccc(C2COCCN2C(=O)c2ccc3nc(N)c4c(c3c2)COC4)cn1 (racemic) [Example 512, (4-amino-1,3-dihydrofuro[3,4-c]quinolin-8-yl)-[rac-(3R)-3-(6-methyl-3-pyridyl)morpholin-4-yl]methanone]
> 10000	380	Nc1nc2ccc(C(=O)N3CCOCC3c3ccc(C(F)(F)F)nc3)cc2c2c1COC2 (racemic) [Example 513, (4-amino-1,3-dihydrofuro[3,4-c]quinolin-8-yl)-[rac-(3S)-3-[6-(trifluoromethyl)-3-pyridyl]morpholin-4-yl]methanone]
5330	56	Cn1ncc2c(N)nc3cc(F)c(C(=O)N4CCC(c5ccc(C(F)(F)F)cn5)C4)cc3c21 (racemic) [Example 541, (4-amino-7-fluoro-1-methyl-1H-pyrazolo[4,3-c]quinolin-8-yl)((3R)-3-(5-(trifluoromethyl)-2-pyridinyl)-1-pyrrolidinyl)methanone and (4-amino-7-fluoro-1-methyl-1H-pyrazolo[4,3-c]quinolin-8-yl)((3S)-3-(5-(trifluoromethyl)-2-pyridinyl)-1-pyrrolidinyl)methanone]
12500	235	Nc1nc2cc(Cl)c(C(=O)N3CCC(c4ccc(C(F)(F)F)cn4)C3)cc2c2c1COC2 (racemic) [Example 542, (4-amino-7-chloro-1,3-dihydrofuro[3,4-c]quinolin-8-yl)((3R)-3-(5-(trifluoromethyl)-2-pyridinyl)-1-pyrrolidinyl)methanone and (4-amino-7-chloro-1,3-dihydrofuro[3,4-c]quinolin-8-yl)((3S)-3-(5-(trifluoromethyl)-2-pyridinyl)-1-pyrrolidinyl)methanone]
1860	18	Cn1ncc2c(N)nc3cc(Cl)c(C(=O)N4CCC(c5ccc(C(F)(F)F)cn5)C4)cc3c21 (racemic) [Example 543, (4-amino-7-chloro-1-methyl-1H-pyrazolo[4,3-c]quinolin-8-yl)((3R)-3-(5-(trifluoromethyl)-2-pyridinyl)-1-pyrrolidinyl)methanone and (4-amino-7-chloro-1-methyl-1H-pyrazolo[4,3-c]quinolin-8-yl)((3S)-3-(5-(trifluoromethyl)-2-pyridinyl)-1-pyrrolidinyl)methanone]
4380	108	COc1ccc([C@H]2COC[C@@H](C)N2C(=O)c2cc3c4c(c(N)nc3cn2)COC4)nn1 (relative stereo) [Example 491, (4-amino-1,3-dihydrofuro[3,4-c][1,7]naphthyridin-8-yl)((3S,5R)-3-(6-methoxypyridazin-3-yl)-5-methylmorpholino)methanone]
3460	49	C[C@H]1OCc2c1c(N)nc1cnc(C(=O)N3CCOC[C@@H]3c3ccc(C(F)(F)F)cc3)cc21 (single isomer, unassigned) [Example 452]
40300	2180	C[C@@H]1OCc2c1c(N)nc1cnc(C(=O)N3CCOC[C@@H]3c3ccc(C(F)(F)F)cc3)cc21 (single isomer, unassigned) [Example 453]
778	24	C[C@H]1OCc2c1c(N)nc1cnc(C(=O)N3CCOC[C@@H]3c3ccc(C(F)(F)C(F)(F)F)cc3)cc21 (single isomer, unassigned) [Example 454]
> 10000	> 1000	Nc1nc2ccc(C(=O)N3CCOC[C@H]3c3ccc(C(F)(F)F)cc3)cc2c2c1COC2 (single isomer, unassigned) [Example 455]
4360	102	Nc1nc2ccc(C(=O)N3CCOC[C@@H]3c3ccc(C(F)(F)F)cc3)cc2c2c1COC2 (single isomer, unassigned) [Example 456]
18600	8710	Nc1nc2cnc(C(=O)N3CCOC[C@H]3c3ccc(S(F)(F)(F)(F)F)cc3)cc2c2c1COC2 (single isomer, unassigned) [Example 457]
454	18	Nc1nc2cnc(C(=O)N3CCOC[C@@H]3c3ccc(S(F)(F)(F)(F)F)cc3)cc2c2c1COC2 (single isomer, unassigned) [Example 458]
6140	72	Nc1nc2cnc(C(=O)N3CCOC[C@@H]3c3ncc(Br)cc3F)cc2c2c1COC2 (single isomer, unassigned) [Example 459]
1810	30	Nc1nc2cc(F)c(C(=O)N3CCOC[C@@H]3c3ncc(Br)cc3F)cc2c2c1COC2 (single isomer, unassigned) [Example 460]
14600	864	CC[C@@H]1CN(C(=O)c2ccc3nc(N)c4c(c3c2)CO[C@@H]4C)C[C@H]1c1ccc(C)cc1 (single isomer, unassigned) [Example 461]
14100	595	C[C@H]1OCc2c1c(N)nc1ccc(C(=O)N3C[C@@H](c4ccc(F)cc4)C(C)(C)C3)cc21 (single isomer, unassigned) [Example 462]
